Reference: patent US9757361B2, “Treatment of psoriasis and of other skin disorders associated with inhibition of differentiation of epidermal cells” (priority 2001, dated 2017)
“Also recorded” adds a separate entry of the source.

Columns and labels:
[1] = test system: EGFR; assay: Immunohistochemical staining for EGFR; type: in vivo, human; details: lesional skin treated with cyclopamine cream for 24 hours
Description: Epidermal growth factor receptor (EGFR) is another marker known to display downregulation of expression with the differentiation of epidermal keratinocytes. […] Ordinarily EGFR expression is not detected immunohistochemically in the suprabasal layers of normal epidermis and the return of EGFR expression to the basal layer of epidermis is regarded to be one of the first signs of effective treatment of psoriasis by various modalities [King L E Jr. et al (1990) Journal of Investigative Dermatology 95: 10S-12S]. We evaluated the EGFR expression with anti-human EGFR antibody EGFR 113 (Novocastra Lab. Ltd., U.K.) and with immunohistochemical staining with peroxidase.

[2] = test system: Ki-67 antigen; details: treated lesional skin, 24th hour
Description: (§1) All antibodies and reagents for these immunohistochemical investigations were purchased from DAKO (Glostrup, Denmark); human Ki-67 antigen was detected by the monoclonal antibody M7187, human epithelial antigen was detected by the monoclonal antibody Ber-EP4, human CD4 antigen was detected by the monoclonal antibody M0716, human CD8 antigen was detected by the monoclonal antibody C8/144B. Besides the CD8 antigen, the monoclonal antibody C8/144B is known to recognize and bind to the cytokeratin 15 expressed by the hair stem cells (Kanitakis J. et al. (1999) Eur. J. Dermatol. 9:363-365). A DAKO “universal visualization kit” (LSAB2) employing biotinylated secondary antibody and peroxidase-conjugated streptavidin (pre-diluted to match the dilutions of DAKO-supplied primary antibodies) was used for the visualization reactions. All reaction conditions were as recommended by the manufacturer.
The Ki-67 antigen is a marker of the proliferating cells.

[3] = test system: psoriatic lesional skin; assay: Histopathological examination (H&E) of treated psoriatic lesional skin; type: in vivo, human; details: treated half of lesion, 24th hour
Protocol: (§2) At intervals of 4 hours, approximately 30 μl cream was applied directly onto the lesion and the cream-applied region was covered against accidental smearing and loss of the cream (FIG. 1 B).
FIG. 2A to FIG. 2W show histopathological and immunohistochemical examination findings of the tissue sections from the non-lesional skin, cyclopamine-treated lesional skin and non-treated lesional skin. Compared to the non-lesional skin (FIG. 2A), the non-treated lesional skin (FIG. 2B) is seen to display the typical histopathological signs of a psoriatic skin lesion mentioned above in the “Background of Invention”. Tissue sections from the cyclopamine-treated half of the original lesion reveal, however, dramatic improvement and regression to normalcy. These histopathological signs of regression to normalcy, exemplified in the FIG. 2C and FIG. 2D (examples from other cyclopamine-treated lesions and patients are given later) include the following: […]

[4] = test system: epithelial antigen (Ber-EP4); assay: Immunohistochemical staining for the epithelial antigen with the Ber-EP4 antibody; type: in vivo, human; details: 24th hour
Description: (§3) All reaction conditions were as recommended by the manufacturer.
The monoclonal antibody Ber-EP4 is known to label the basal layer cells in normal epidermis. The outer root sheath of hair follicles, where the hair stem cells are thought to reside, are also known to be labeled with Ber-EP4.

[5] = test system: psoriatic lesions; assay: Topical treatment of psoriatic lesions of patients, clinical response and EES scoring; type: in vivo, human
Protocol: The base cream used is made predominantly of heavy paraffin oil (10% w/w), vaseline (10% w/w), stearyl alcohol (8% w/w), polyoxylsteareth-40 (3% w/w) and water (68% w/w) but another suitably formulated base cream is also possible. […] The dosing and the application schedules followed for the lesion shown in FIG. 1A (psoriatic plaque on the dorsum of hand) are as follows: about 30 μl cream applied directly onto the lesion with the aid of a steel spatula every four hours for 24 hours. The cream-applied area is protected from accidental smearing and loss of the cream by covering with an aluminum applicator (FIG. 1 B). The dosing and the application schedules followed for the lesion shown in FIG. 1 D (psoriatic plaque at the scapular region) are as follows: about 30 μl cream applied directly onto the lesion every four hours for 24 hours. The cream-applied area is similarly covered against the smearing and loss of cream. Other treated psoriatic patients and lesions received from about 30 to 35 μl cream to each lesion at intervals of every 3 to 5 hours, as suitable and convenient. Lesions were similarly covered against the smearing and loss of cream. […] The corticosteroid used for treatment of the lesion shown in FIG. 4E was clobetasol 17-propionate in a final concentration of about 1.1 mM in base cream. […] Other corticosteroid molecules well known in the art are contemplated to be also suitable and capable of replacing the above-mentioned corticosteroid molecules at suitable concentrations (the suitable concentration ranges for corticosteroids are also known in the art).
as §2
Treatment was then discontinued and the lesion was followed-up.
Severity of psoriatic lesions can be assessed on a semi-quantitative scale by giving separate scores for the erythema, elevation and scaling of a lesion and then by summing up the scores to obtain a score called the EES score of that lesion (Bowman P. H. et al. (2002) J. Am. Acad. Dermatol. 46:907-913).

[6] = test system: CD44; assay: Immunohistochemical staining for the CD44 antigen; type: in vivo, human; details: lesional skin, 24th hour of treatment
Description: What might be the key/proximal pathogenic event(s) intervened by cyclopamine? […] Both FIG. 4G and a closer-up view on FIG. 4H show decreased CD44 expression in the suprabasal and spinous layers in lesional epidermis in comparison to the situation in non-lesional epidermis.

[7] = test system: basal cell carcinoma cells; details: found earlier, PCT/TR 01/00027; cited from earlier work
[8] = test system: CD4 positive lymphocytes; assay: Immunohistochemical staining for the CD4 antigen in lesional skin; type: in vivo, human; details: treated half of lesion, 24th hour
Description: as §3
Moreover, conversion of the CD4(−) and CD8(−) lymphocytes to the CD4(+) and CD8(+) lymphocytes is viewed widely in the prior art as a requirement for their psoriatic plaque causing action [reviewed in Krueger J G (2002) Journal of the American Academy of Dermatology 46:1-23].

[9] = Follow-up of healthy / non-lesional skin after topical cyclopamine for adverse effects; details: for adverse effect of topical application on healthy / non-lesional skin: described concentration and dosing conditions
[10] = test system: cytokeratin 15; assay: Immunohistochemical staining with the C8/144B antibody (cytokeratin 15); details: 24th hour
Description: as §1

CC1=C2C[C@H]3[C@@H](CC=C4C[C@@H](O)CC[C@@]43C)[C@@H]2CC[C@]12O[C@@H]1C[C@H](C)CN[C@H]1[C@H]2C [cyclopamine]
EGFR expression in lesional epidermis [1]: rapidly normalized within 24 hours | frequency and epidermal position of Ki-67 antigen positive cells [2]: Return of the Ki-67 displaying cells to the epidermal basal layer; also recorded: return of both the frequency and the epidermal position of the Ki-67 antigen positive cells to normalcy | granular layer of epidermis [3]: Vigorous re-appearance | hyperkeratosis and parakeratosis in the stratum corneum [3]: decreased but full normalization of this oldest epidermal layer did not yet happen | inflammatory cells infiltrating the subepidermal dermis [3]: Disappearance from the cyclopamine-treated lesional skin of most of the inflammatory cells | rete ridges and epidermal hyperplasia [3]: Return of the thickened and elongated rete ridges to normal levels and marked decrease of epidermal hyperplasia | suprapapillary epidermis and papillary edema [3]: Return of the thinning of the suprapapillary epidermis to normalcy and the disappearance of papillary edema | Ber-EP4 staining of basal cells of non-lesional skin after exposure ([4]; non-lesional skin in psoriasis): remained Ber-EP4 positive | Ber-EP4 labeling of epidermal basal layer cells of lesional skin ([4]; treated lesional skin): cyclopamine-induced reversion to normalcy; also recorded: Epidermal basal layer cells are seen to display the epithelial antigen; also recorded: reverted to normalcy | day on which the lesion cleared / became undetectable ([5]; 18 mM cyclopamine cream every fourth hour for 24 hours, then follow-up without treatment): > 8 days | days of continued treatment until the lesion cleared ([5]; application every fourth hour until clearance): 3 to 4 days | lesions subjected to single-day treatment that failed to clear completely ([5]; human, in vivo): about 29% | effectiveness on treated psoriatic lesions of different patients and body parts ([5]; patients 29 to 57 years, lesions on extremities to trunk): highly effective on every psoriatic lesion for which it was used | appearance of lesion site on the 14th day of follow-up ([5]; plaque at left scapular region, 1 day of treatment, FIG. 1F): No lesion is visible, skin appears normal | appearance of lesion after 1 day of treatment and 7 days of follow-up ([5]; plaque at left scapular region, FIG. 1E): With the possible exception of slight erythema, lesion is no longer visible | site of the treated lesion over a month of follow-up ([5]; scapular plaque, 1 day of treatment): healthy-looking normal skin | CD44 expression in lesional epidermis [6]: rapid induction and normalization of the CD44 expression; also recorded: increase and normalization of the expression of CD44 | Ber-EP4 staining of basal cells of normal epidermis exposed under the same conditions [7]: continued to be Ber-EP4 positive | effect on basal cell carcinoma cells (differentiation, Ber-EP4 staining) [7]: cause their differentiation and caused loss of their Ber-EP4 staining | CD4 positive lymphocytes infiltrating the lesional skin [8]: Disappearance of the CD4 positive lymphocytes from the dermis of treated area; also recorded: largely cleared | longest duration of follow-up of healthy skin with no adverse effect found ([9]; at the time of writing of the invention): over 14 months | adverse effect of topical application on healthy / non-lesional skin [9]: no adverse effect has been detected | adverse effect of topical application on healthy / non-lesional skin ([9]; listed as Cyclopamine): did not adversely affect the non-lesional skin; also recorded: no detectable adverse effect | follow-up of skin sites of application showing healthy-looking normal skin and hair ([9]; interval since filing of PCT/TR 02/00017): more than 31 months | cytokeratin 15 in basal cells of non-lesional epidermis after exposure ([10]; non-lesional skin): continued to be positive for the cytokeratin 15 | C8/144B (cytokeratin 15) labeling of epidermal basal layer cells of lesional skin ([10]; treated lesional skin): consistent restoration of the lost cytokeratin 15 expression; also recorded: normalized and became labeled by the C8/144B antibody
